Laboratory results reported in patent US20260151518A1, “LEUKOCYTE-SPECIFIC CELL PENETRATING MOLECULES” (Amytrx Therapeutics, Inc., priority 2021, published 2026).
Marks after values point to notes of the source that are not given here.

Assay: Tissue distribution of radioactivity by quantitative whole body autoradiography (QWBA) after single intravenous [3H]-AMTX-100
Type: in vivo, rat
Experimental: The formulation was administered directly into a tail vein. The dose volume (2.5 mL/kg) was used to achieve a dose level of 5 mg/kg and radioactive dose levels of 100 μCi/kg (Phase 1) and 500 μCi/kg (Phase 2). The dose formulation was stirred continuously throughout the dosing procedure.
Quantitative Whole Body Autoradiography (QWBA). The frozen carcasses were subjected to QWBA. Sections were presented at up to five different levels of the rat body to include between 30 and 40 tissues (subject to presence of sufficient radioactivity).
The freeze-dried whole body autoradiography sections were exposed to phosphor-storage imaging plates and incubated at ambient temperature in the dark for seven days. Calibrated autoradiographic blood standards containing known amounts of radioactivity (nCi/g) were included in each exposure.
Distribution of radioactivity in tissues and [^3H]-blood standards (prepared and validated at Pharmaron UK Ltd.) was determined and quantified using a Fuji FLA-5100 fluorescent image analyzing system and associated Tina (version 2.09) and SeeScan (version 2.0) software. For each exposure, a standard curve was produced in SeeScan using the data from the autoradiographic blood standards from which tissue concentrations of radioactivity (μg equivalents/g) were determined.
A representative background radioactivity measurement for each exposure plate used was also taken. The number of measurements for each particular tissue was determined by the number of levels it appeared in. Multiple measurements were therefore performed for larger tissues that appeared in more than one level (e.g. liver), with only one measurement obtained for small tissues (e.g. thyroid gland). The limit of accurate quantification was considered to be the lowest [^3H]-blood standard visible.
Three of the carcasses obtained from the eight male Sprague Dawley rats subjected to whole blood collection and analysis after each receiving a single intravenous administration of [^3H]-AMTX-100, were selected for QWBA analysis at each of the following time points: 10 minutes and 2 and 12 hours post-dose.
Each carcass was snap frozen by immersion in a hexane/dry ice mixture immediately after collection and was then stored at approximately −20° C., pending analysis by QWBA.

[1] = single intravenous, 5 mg/kg, rat, 10 min
[2] = single intravenous, 5 mg/kg, rat, 2 hr
[3] = single intravenous, 5 mg/kg, rat, 12 hr

## CSCC[C@@H]1NC(=O)[C@H](CC(C)C)NC(=O)[C@H](CCCCN)NC(=O)[C@H](CCC(N)=O)CC(=O)[C@H](CCCNC(=N)N)NC(=O)[C@H](CCCCN)NC(=O)[C@H](CCCNC(=N)N)NC(=O)[C@H](CCC(N)=O)NC(=O)[C@H](C(C)C)NC(=O)[C@@H](NC(=O)[C@@H]2CCCN2C(=O)[C@H](C)NC(=O)[C@H](CC(C)C)NC(=O)[C@H](CC(C)C)NC(=O)[C@H](C)NC(=O)[C@H](CC(C)C)NC(=O)[C@H](CC(C)C)NC(=O)[C@@H](NC(=O)[C@H](C)NC(=O)[C@@H]2CCCN2C(=O)[C@H](CC(C)C)NC(=O)[C@H](CC(C)C)NC(=O)[C@H](C)NC(=O)[C@@H](NC(=O)[C@H](C)NC(=O)[C@H](C)N)C(C)C)C(C)C)CSSC[C@@H](C(=O)O)NC(=O)[C@@H]2CCCN2C1=O [[^3H]-AMTX-100]
rats
  Radioactivity localization in heart and other muscle cells: lack of radioactivity localization in heart and other muscle cells
rats, spleen, lung, liver, lymph nodes, kidney, adrenal gland, bone marrow, pancreas, small intestine, etc.
  Organ localization of radioactivity: localized to organs where immune cells are known to reside and traffic through
[1]
  Concentration of radioactivity in Adrenal gland: 9.93 μg equivalents/g
  Concentration of radioactivity in Blood: residual cardiac: 2.89 μg equivalents/g
  Concentration of radioactivity in Bone: BLQ (Below lower limit of accurate quantification (<0.36 μg equivalents/g))
  Concentration of radioactivity in Bone marror: 4.44 μg equivalents/g
  Concentration of radioactivity in Brain: BLQ (Below lower limit of accurate quantification (<0.36 μg equivalents/g))
  Concentration of radioactivity in Caecum contents: BLQ (Below lower limit of accurate quantification (<0.36 μg equivalents/g))
  Concentration of radioactivity in Caecum mucosa: 0.82 μg equivalents/g
  Concentration of radioactivity in Choroid plexus: 0.71 μg equivalents/g
  Concentration of radioactivity in Epididymis: 0.44 μg equivalents/g
  Concentration of radioactivity in Ex-orbital lachrymal gland: 0.71 μg equivalents/g
  Concentration of radioactivity in Eye: lens: BLQ (Below lower limit of accurate quantification (<0.36 μg equivalents/g))
  Concentration of radioactivity in Eye: whole: BLQ (Below lower limit of accurate quantification (<0.36 μg equivalents/g))
  Concentration of radioactivity in Fat: brown: 0.59 μg equivalents/g
  Concentration of radioactivity in Fat: white: 0.38 μg equivalents/g
  Concentration of radioactivity in Forestomach mucosa: 0.52 μg equivalents/g
  Concentration of radioactivity in Glandular stomach mucosa: 1.13 μg equivalents/g
  Concentration of radioactivity in Harderian gland: 0.46 μg equivalents/g
  Concentration of radioactivity in Kidney: cortex: 16.30 μg equivalents/g
  Concentration of radioactivity in Kidney: medulla: 10.10 μg equivalents/g
  Concentration of radioactivity in Kidney: whole: 13.30 μg equivalents/g
  Concentration of radioactivity in Large intestine contents: BLQ (Below lower limit of accurate quantification (<0.36 μg equivalents/g))
  Concentration of radioactivity in Large intestine mucosa: 0.80 μg equivalents/g
  Concentration of radioactivity in Liver: 58.60 μg equivalents/g
  Concentration of radioactivity in Lung: 96.70 μg equivalents/g
  Concentration of radioactivity in Lymph node: 1.13 μg equivalents/g
  Concentration of radioactivity in Muscle: 0.52 μg equivalents/g
  Concentration of radioactivity in Myocardium: 1.25 μg equivalents/g
  Concentration of radioactivity in Pancreas: 1.71 μg equivalents/g
  Concentration of radioactivity in Pituitary gland: 2.21 μg equivalents/g
  Concentration of radioactivity in Prostate gland: 0.41 μg equivalents/g
  Concentration of radioactivity in Salivary gland: 1.09 μg equivalents/g
  Concentration of radioactivity in Skin: 0.48 μg equivalents/g
  Concentration of radioactivity in Small intestine contents: BLQ (Below lower limit of accurate quantification (<0.36 μg equivalents/g))
  Concentration of radioactivity in Small intestine mucosa: 0.54 μg equivalents/g
  Concentration of radioactivity in Spinal cord: BLQ (Below lower limit of accurate quantification (<0.36 μg equivalents/g))
  Concentration of radioactivity in Spleen: red pulp: 15.40 μg equivalents/g
  Concentration of radioactivity in Spleen: white pulp: 8.70 μg equivalents/g
  Concentration of radioactivity in Spleen: whole: 55.80 μg equivalents/g
  Concentration of radioactivity in Stomach contents: BLQ (Below lower limit of accurate quantification (<0.36 μg equivalents/g))
  Concentration of radioactivity in Testis: BLQ (Below lower limit of accurate quantification (<0.36 μg equivalents/g))
  Concentration of radioactivity in Thymus: 0.45 μg equivalents/g
  Concentration of radioactivity in Thyroid gland: 1.66 μg equivalents/g
  Concentration of radioactivity in Urinary bladder contents: 67.50 μg equivalents/g
  Concentration of radioactivity in Urinary bladder wall: 0.69 μg equivalents/g
[2]
  Concentration of radioactivity in Adrenal gland: 5.33 μg equivalents/g
  Concentration of radioactivity in Blood: residual cardiac: 0.82 μg equivalents/g
  Concentration of radioactivity in Bone: BLQ (Below lower limit of accurate quantification (<0.36 μg equivalents/g))
  Concentration of radioactivity in Bone marror: 4.40 μg equivalents/g
  Concentration of radioactivity in Brain: BLQ (Below lower limit of accurate quantification (<0.36 μg equivalents/g))
  Concentration of radioactivity in Caecum contents: BLQ (Below lower limit of accurate quantification (<0.36 μg equivalents/g))
  Concentration of radioactivity in Caecum mucosa: 0.76 μg equivalents/g
  Concentration of radioactivity in Epididymis: 0.67 μg equivalents/g
  Concentration of radioactivity in Ex-orbital lachrymal gland: 0.46 μg equivalents/g
  Concentration of radioactivity in Eye: lens: BLQ (Below lower limit of accurate quantification (<0.36 μg equivalents/g))
  Concentration of radioactivity in Eye: whole: BLQ (Below lower limit of accurate quantification (<0.36 μg equivalents/g))
  Concentration of radioactivity in Fat: brown: BLQ (Below lower limit of accurate quantification (<0.36 μg equivalents/g))
  Concentration of radioactivity in Fat: white: BLQ (Below lower limit of accurate quantification (<0.36 μg equivalents/g))
  Concentration of radioactivity in Forestomach mucosa: 0.57 μg equivalents/g
  Concentration of radioactivity in Glandular stomach mucosa: 0.81 μg equivalents/g
  Concentration of radioactivity in Harderian gland: 0.37 μg equivalents/g
  Concentration of radioactivity in Kidney: cortex: 9.59 μg equivalents/g
  Concentration of radioactivity in Kidney: medulla: 4.47 μg equivalents/g
  Concentration of radioactivity in Kidney: whole: 7.35 μg equivalents/g
  Concentration of radioactivity in Large intestine contents: BLQ (Below lower limit of accurate quantification (<0.36 μg equivalents/g))
  Concentration of radioactivity in Large intestine mucosa: 0.63 μg equivalents/g
  Concentration of radioactivity in Liver: 31.60 μg equivalents/g
  Concentration of radioactivity in Lung: 31.90 μg equivalents/g
  Concentration of radioactivity in Lymph node: 0.83 μg equivalents/g
  Concentration of radioactivity in Muscle: BLQ (Below lower limit of accurate quantification (<0.36 μg equivalents/g))
  Concentration of radioactivity in Myocardium: 0.53 μg equivalents/g
  Concentration of radioactivity in Pancreas: 1.69 μg equivalents/g
  Concentration of radioactivity in Pituitary gland: 1.58 μg equivalents/g
  Concentration of radioactivity in Prostate gland: 0.83 μg equivalents/g
  Concentration of radioactivity in Salivary gland: 0.80 μg equivalents/g
  Concentration of radioactivity in Skin: 0.39 μg equivalents/g
  Concentration of radioactivity in Small intestine contents: 1.23 μg equivalents/g
  Concentration of radioactivity in Small intestine mucosa: 0.89 μg equivalents/g
  Concentration of radioactivity in Spinal cord: BLQ (Below lower limit of accurate quantification (<0.36 μg equivalents/g))
  Concentration of radioactivity in Spleen: red pulp: 11.90 μg equivalents/g
  Concentration of radioactivity in Spleen: white pulp: 2.92 μg equivalents/g
  Concentration of radioactivity in Spleen: whole: 41.80 μg equivalents/g
  Concentration of radioactivity in Stomach contents: BLQ (Below lower limit of accurate quantification (<0.36 μg equivalents/g))
  Concentration of radioactivity in Testis: 0.37 μg equivalents/g
  Concentration of radioactivity in Thymus: 0.68 μg equivalents/g
  Concentration of radioactivity in Thyroid gland: 1.29 μg equivalents/g
  Concentration of radioactivity in Urinary bladder wall: 1.22 μg equivalents/g
Single intravenous, 5 mg/kg, rat, 2 hr, above upper limit of accurate quantification (>153 μg equivalents/g)
  Concentration of radioactivity in Urinary bladder contents: 219.00* μg equivalents/g
[3]
  Concentration of radioactivity in Adrenal gland: 0.44 μg equivalents/g
  Concentration of radioactivity in Blood: residual cardiac: BLQ (Below lower limit of accurate quantification (<0.36 μg equivalents/g))
  Concentration of radioactivity in Bone marror: 2.18 μg equivalents/g
  Concentration of radioactivity in Caecum contents: BLQ (Below lower limit of accurate quantification (<0.36 μg equivalents/g))
  Concentration of radioactivity in Kidney: cortex: 0.61 μg equivalents/g
  Concentration of radioactivity in Kidney: medulla: 0.45 μg equivalents/g
  Concentration of radioactivity in Kidney: whole: 0.54 μg equivalents/g
  Concentration of radioactivity in Large intestine contents: 0.36 μg equivalents/g
  Concentration of radioactivity in Large intestine mucosa: BLQ (Below lower limit of accurate quantification (<0.36 μg equivalents/g))
  Concentration of radioactivity in Liver: 8.77 μg equivalents/g
  Concentration of radioactivity in Lung: 30.10 μg equivalents/g
  Concentration of radioactivity in Muscle: BLQ (Below lower limit of accurate quantification (<0.36 μg equivalents/g))
  Concentration of radioactivity in Pancreas: BLQ (Below lower limit of accurate quantification (<0.36 μg equivalents/g))
  Concentration of radioactivity in Small intestine contents: 0.47 μg equivalents/g
  Concentration of radioactivity in Small intestine mucosa: BLQ (Below lower limit of accurate quantification (<0.36 μg equivalents/g))
  Concentration of radioactivity in Spleen: red pulp: 6.89 μg equivalents/g
  Concentration of radioactivity in Spleen: white pulp: 0.89 μg equivalents/g
  Concentration of radioactivity in Spleen: whole: 11.90 μg equivalents/g
  Concentration of radioactivity in Testis: BLQ (Below lower limit of accurate quantification (<0.36 μg equivalents/g))
  Concentration of radioactivity in Urinary bladder contents: 11.90 μg equivalents/g
  Concentration of radioactivity in Urinary bladder wall: BLQ (Below lower limit of accurate quantification (<0.36 μg equivalents/g))
